Experimental data: patent publication US11633505B2, “Nuclear magnetic resonance diagnostic agent, and method for detecting or diagnosing state of cell, tissue or organ in subject using same” (National University Corporation Kumamoto University, priority 2012, dated 2023)

System: Brain tumor (9 L gliosarcoma)
Experiment: MRI (7T, 2D-RARE) T1/T2 measurement of excised subcutaneous tumor after ALA administration
Settings: for Average T1 value / Average T2 value: ROI in excised tumor portion, ALA 100 mg/kg, 3 hours after administration, 7T-MRI, mean ± standard deviation

## NCC(=O)CCC(=O)O [ALA, 5-aminolevulinic acid]
First average
  Average T1 value: 2004 ± 73 ms
  Average T2 value: 146 ± 22 ms
Second average
  Average T1 value: 2188 ± 210 ms
  Average T2 value: 123 ± 5.7 ms
First measurement
  signal ratio (ALA administration group/control group) of T2 value: approximately 1.4 times
Second measurement
  signal ratio (ALA administration group/control group) of T2 value: approximately 1.3 times
